Measurements published in patent publication US5965539A, “Inhibitors of prenyl transferases” (Univeristy of Pittsburgh, priority 1996, dated 1999).
pIC50: −log10 of the molar value. Like-named read-outs stand apart in the source and are kept apart here.

Columns and labels:
[1] = target: T1, FTase (Homo sapiens, UniProt P49356); experiment: FTase activity assay: transfer of [3H]farnesyl from FPP to recombinant H-Ras-CVLS, Daudi 60,000xg supernatant; type: biochemical; conditions: for Selectivity: FTase over GGTase I; for GG/F: ratio GGTase I IC50 / FTase IC50
T1 construct: FTase and GGTase I activities from 60,000×g supernatants of human Burkitt lymphoma (Daudi) cells; endogenous in cells; host or cells: human Burkitt lymphoma (Daudi) cells, 60,000xg supernatant (partially purified)
T1 sequence (P49356 whole entry): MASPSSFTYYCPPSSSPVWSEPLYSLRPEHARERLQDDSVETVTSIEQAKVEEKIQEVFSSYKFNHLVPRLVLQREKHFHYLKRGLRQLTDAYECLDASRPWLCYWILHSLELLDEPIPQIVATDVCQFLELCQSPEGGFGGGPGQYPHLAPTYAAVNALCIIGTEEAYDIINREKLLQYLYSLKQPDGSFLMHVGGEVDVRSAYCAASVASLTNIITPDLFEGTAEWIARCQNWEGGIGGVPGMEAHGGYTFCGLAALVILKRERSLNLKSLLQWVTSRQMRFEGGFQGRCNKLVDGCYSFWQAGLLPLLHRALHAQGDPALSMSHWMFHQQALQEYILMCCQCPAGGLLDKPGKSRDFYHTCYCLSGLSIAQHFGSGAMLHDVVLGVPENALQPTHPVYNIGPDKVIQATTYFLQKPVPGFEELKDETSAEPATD
Method: FTase and GGTase I activities from 60,000×g supernatants of human Burkitt lymphoma (Daudi) cells (ATCC, Rockville, Md., USA) were assayed as described previously for FTase (41). Briefly, 100 μg of the supernatant was incubated in 50 mM Tris, pH 7.5, 50 μM ZnCl2, 20 mM KCl and 1 mM dithiothreitol (DTT).
Human Burkitt lymphoma (Daudi) cells (ATCC, Rockville, Md.) were grown in suspension in RPMI 1640 medium containing 10% fetal bovine serum (FBS) and 1% Pen-Strep in a humidified 10% CO2 incubator at 37° C. The cells were harvested and sonicated in 50 mM Tris, pH 7.5, 1 mM EDTA, 1 mM EGTA, 25 μg/ml leupeptin, 1 mM phenylmethylsulfonyl fluoride. Homogenates were then spun at 12,000×g and the resulting supernatant further spun at 60,000×g. The supernatant was assayed for both FTase and GGTase I. Briefly, 100 μg of the supernatants was incubated in 50 mM Tris, pH 7.5, 50 μM ZnCl2, 20 mM KCl, 3 mM MgCl2 and 1 mM DTT. […] FPP (625 nM; 16.3 Ci/mmol). For GGTase assays, the reaction was also incubated for 30 minutes at 37° C. but with recombinant H-Ras-CVLL (5 μM) and [^3 H] GGPP (525 nM; 19.0 Ci/mmol). The reaction was stopped and passed through glass fiber filters to separate free and incorporated label. For inhibition studies, the peptidomimetics were premixed with FTase or GGTase I prior to adding the remainder of the reaction mixture. […] Recombinant H-Ras-CVLL was prepared from bacteria (32).
FTase and GGTase I activities from 60,000×g supernatants of human Burkitt lymphoma (Daudi) cells (ATCC, Rockville, Md.) were assayed exactly as described previously for FTase (41).

[2] = target: T2, GGTase I (Homo sapiens, UniProt P53609); experiment: GGTase I activity assay: transfer of [3H]geranylgeranyl to recombinant H-Ras-CVLL, Daudi 60,000xg supernatant; type: biochemical
T2 construct: FTase and GGTase I activities from 60,000×g supernatants of human Burkitt lymphoma (Daudi) cells; endogenous in cells; host or cells: human Burkitt lymphoma (Daudi) cells, 60,000xg supernatant (partially purified)
T2 sequence (P53609 whole entry): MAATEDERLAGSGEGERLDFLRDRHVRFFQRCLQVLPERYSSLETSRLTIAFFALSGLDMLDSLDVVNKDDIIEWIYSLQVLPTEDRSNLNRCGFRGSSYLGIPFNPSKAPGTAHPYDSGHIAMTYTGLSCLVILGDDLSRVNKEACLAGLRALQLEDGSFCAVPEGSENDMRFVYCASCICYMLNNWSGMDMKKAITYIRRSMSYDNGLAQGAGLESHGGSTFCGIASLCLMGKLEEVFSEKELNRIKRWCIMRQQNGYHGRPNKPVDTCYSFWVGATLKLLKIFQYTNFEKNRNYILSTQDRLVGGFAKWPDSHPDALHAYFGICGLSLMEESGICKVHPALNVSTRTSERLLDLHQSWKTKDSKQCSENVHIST
Method: FTase and GGTase I activities from 60,000×g supernatants of human Burkitt lymphoma (Daudi) cells (ATCC, Rockville, Md., USA) were assayed as described previously for FTase (41). Briefly, 100 μg of the supernatant was incubated in 50 mM Tris, pH 7.5, 50 μM ZnCl2, 20 mM KCl and 1 mM dithiothreitol (DTT). The reaction was incubated at […] for 30 min with recombinant Ha-Ras-CVLS (11 μM) and [^3 H]FPP (625 nM; 16.3 Ci/mmol) for FTase, and recombinant Ha-Ras-CVLL (5 μM) and [^3 H]geranylgeranylpyrophosphate (525 nM; 19.0 Ci/mmol) for GGTase I. The peptidomimetics were mixed with FTase and GGTase before adding to the reaction mixture.
Human Burkitt lymphoma (Daudi) cells (ATCC, Rockville, Md.) were grown in suspension in RPMI 1640 medium containing 10% fetal bovine serum (FBS) and 1% Pen-Strep in a humidified 10% CO2 incubator at 37° C. The cells were harvested and sonicated in 50 mM Tris, pH 7.5, 1 mM EDTA, 1 mM EGTA, 25 μg/ml leupeptin, 1 mM phenylmethylsulfonyl fluoride. Homogenates were then spun at 12,000×g and the resulting supernatant further spun at 60,000×g. The supernatant was assayed for both FTase and GGTase I. Briefly, 100 μg of the supernatants was incubated in 50 mM Tris, pH 7.5, 50 μM ZnCl2, 20 mM KCl, 3 mM MgCl2 and 1 mM DTT. For FTase assays, the reaction was incubated at 37° C. for 30 minutes with recombinant H-Ras-CVLS (11 μM) and [^3 H] FPP (625 nM; 16.3 Ci/mmol). For GGTase assays, the reaction was also incubated for 30 minutes at 37° C. but with recombinant H-Ras-CVLL (5 μM) and [^3 H] GGPP (525 nM; 19.0 Ci/mmol). The reaction was stopped and passed through glass fiber filters to separate free and incorporated label. For inhibition studies, the peptidomimetics were premixed with FTase or GGTase I prior to adding the remainder of the reaction mixture. Recombinant H-Ras-CVLS was prepared as described previously (26) from bacteria (31). Recombinant H-Ras-CVLL was prepared from bacteria (32).
FTase and GGTase I activities from 60,000×g supernatants of human Burkitt lymphoma (Daudi) cells (ATCC, Rockville, Md.) were assayed exactly as described previously for FTase (41). Inhibition studies were performed by determining the ability of Ras CAAX peptidomimetics to inhibit the transfer of [^3 H]-farnesyl and [^3 H]-geranylgeranyl from [^3 H]FPP and [^3 H]GGPP to H-ras-CVLS and H-Ras-CVLL, respectively (41).

[3] = Table 4, read-out: GGTase-I IC50
[4] = Table 1, read-out: GGTase I IC50

Molecule	Selectivity ([1]; Table 4)	pIC50 ([1]; Table 4, read-out: FTase IC50)	pIC50 [2, 3]	further results
N[C@@H](CS)C(=O)Nc1ccc(-c2cccc(C(=O)O)c2)cc1 [FTI-278, Cysteinyl-4-amino-3'-carboxybiphenyl]	7	4.87	4.00	
NCC(N)C(=O)Nc1ccc(-c2cccc(C(=O)O)c2)cc1 (centres unmarked) [FTI-291, 4-(3-Aminoalanyl)-amino-3'-carboxybiphenyl]		3.68		
TFA.cysteine-4-amino-3-methylbenzoyl methionine [FTI-260]				GG/F ([1]; Table 1): 11; pIC50 ([1]; Table 1, read-out: FTase IC50): 6.08; pIC50 [2, 4]: 5.05
COc1cc(C(=O)NC(CCSC)C(=O)O)ccc1NC(=O)C(N)CS.O=C(O)C(F)(F)F (centres unmarked) [FTI-261, TFA.Cysteine-4-amino-3-methoxybenzoyl methionine]				GG/F ([1]; Table 1): 20; pIC50 ([1]; Table 1, read-out: FTase IC50): 5.59; pIC50 [2, 4]: 4.30
CSCC[C@H](NC(=O)c1ccc(NC(=O)[C@@H](N)CS)cc1-c1ccccc1)C(=O)O.O=C(O)C(F)(F)F [FTI-272, TFA.Cysteine-4-amino-2-phenylbenzoyl methionine]				GG/F ([1]; Table 1): 53; pIC50 ([1]; Table 1, read-out: FTase IC50): 8.30; pIC50 [2, 4]: 6.57
TFA.cysteine-4-amino-1-naphthoyl methionine [FTI-270]				GG/F ([1]; Table 1): 22; pIC50 ([1]; Table 1, read-out: FTase IC50): 6.84; pIC50 [2, 4]: 5.50
CCS(=O)(=O)NCC(N)C(=O)Nc1ccc(-c2cccc(C(=O)O)c2)cc1 (centres unmarked) [FTI-295, 4-(Ethylsulfonyl-3-aminoalanyl)-amino-3'-carboxy-biphenyl]	> 5	3.70	< 3.00	
CSCC[C@H](NC(=O)c1ccc(NC(=O)[C@@H](N)CS)cc1-c1cc(C)cc(C)c1)C(=O)O.O=C(O)C(F)(F)F [FTI-275, TFA.Cysteine-4-amino-2-(3,5-dimethylphenyl)benzoyl methionine]				GG/F ([1]; Table 1): 1; pIC50 ([1]; Table 1, read-out: FTase IC50): 6.39; pIC50 [2, 4]: 6.40
4-(Vinylsulfonyl-3-aminoalanyl)-amino-3'-carboxybiphenyl [FTI-296]	> 2	3.37	< 3.00	
CC(C)C[C@H](NC(=O)c1ccc(NC[C@@H](N)CS)cc1-c1ccccc1)C(=O)O [GGTI-287, 4-[2(R)-amino-3-mercaptopropyl]amino-2-phenylbenzoyl-(S)-leucine]				pIC50 ([1]; Table 5, read-out: In Vitro IC50 FTase): 7.60; selectivity for GGTase I over FTase [2]: 5 fold; pIC50 ([2]; Table 5, read-out: In Vitro IC50 GGTase I): 8.30; pIC50 ([2]; read-out: GGTase I IC50): 8.30

Second part, led by results:

Selectivity ([1]; Table 4)	pIC50 ([1]; Table 4, read-out: FTase IC50)	pIC50 [2, 3]	Molecule	further results
59	7.39	5.62	CCCOc1cc(NC[C@@H](N)CS)ccc1-c1cccc(C(=O)O)c1 [FTI-288, red.Cys-4-amino-2-OPr-3'-carboxybiphenyl]	
1090	7.40	4.36	COc1cc(NC[C@@H](N)CS)ccc1-c1cccc(C(=O)O)c1 [FTI-281, 2-Methoxy-4-N-[2(R)-amino-3-mercaptopropyl]amino-3'-carboxybiphenyl]	
> 2	4.30		NCC(N)CNc1ccc(-c2cccc(C(=O)O)c2)cc1 (stereo not drawn) [FTI-282, (DL) 4-(2,3-diaminopropyl)-amino-3' carboxybiphenyl]	
3	4.96	4.46	N[C@@H](CS)CNCc1cccc(-c2cccc(C(=O)O)c2)c1 [FTI-283, red.Cys-3-aminomethyl-3'-carboxybiphenyl]	
4	5.68	5.07	Cc1cccc(-c2ccc(NC[C@@H](N)CS)cc2-c2ccccc2)c1 [FTI-285, red.Cys-4-amino-2-phenyl-3'-methylbiphenyl]	
	4.22		NC[C@H](N)CNc1ccc(-c2cccc(C(=O)O)c2)cc1 [FTI-292, (L)4(2,3-diaminopropyl)-amino-3'-carboxybiphenyl]	
258	6.27	3.85	N[C@@H](CS)CNc1ccc(-c2ccccc2C(=O)O)cc1 [FTI-273, 4-N-[2(R)-Amino-3-mercaptopropyl]amino-2'-carboxybiphenyl]	
40	7.80	6.19	N[C@@H](CS)CNc1ccc(-c2cccc(C(=O)O)c2)c(-c2ccccc2)c1 [FTI-289, red.Cys-4-amino-2-phenyl-3'-carboxybiphenyl]	
